# Counter-ions that a name gives are not always drawn. Like-named read-outs stand apart in the source and are kept apart here.
# What was measured:
# mice [1] = assay: Warm-water tail immersion; assay type: in vivo, mouse; settings: for Antinociceptive effect (%MPE) in single-dose screening: 20 min, vs vehicle; for Antinociception potency ED50 (95% CL): 20 min after injection; for Time of peak antinociceptive effect: time-course study; for Blocking of the antinociception of 0.1 mg/kg NMF by selective antagonist: nor-BNI, β-FNA 10 mg/kg s.c. 24 h prior, NTI 15 mg/kg s.c. 30 min prior
# MOR [2] = target: T1, MOR (Mus musculus, UniProt P42866); assay: [35S]-GTPγS binding assay, mMOR-CHO membrane; assay type: biochemical; settings: for MOR %Emax: %Emax = 100 defined using Emax of 3 μM DAMGO; for MOR %Emax / EC50: mean ± SEM; for EC50: read-out: MOR EC50
# DOR = DOR (Mus musculus, UniProt P32300); assay: [35S]-GTPγS binding assay, mDOR-CHO membrane; assay type: biochemical; settings: for DOR %Emax: %Emax = 100 defined using 5 μM SNC80; for DOR %Emax / EC50: mean ± SEM; for EC50: read-out: DOR EC50
# MOR [3] = target: T1, MOR; assay: Competitive radioligand binding assay, MOR; settings: ratio of Ki DOR/MOR
# KOR [4] = target: T2, KOR (Mus musculus, UniProt P33534); assay: [35S]-GTPγS binding assay, mKOR-CHO membrane; assay type: biochemical; settings: mean ± SEM; for KOR %Emax: %Emax = 100 defined using 5 μM U50,488H; for EC50: read-out: KOR EC50
# KOR [5] = target: T2, KOR; assay: Competitive radioligand binding assay, KOR; settings: for Selectivity D/K: ratio of Ki DOR/KOR; for Selectivity M/K: ratio of Ki MOR/KOR
# mice [6] = assay: Tolerance and cross tolerance; settings: day 5; 0.1 mg/kg NMF vs 10 mg/kg morphine
# mice [7] = assay: Spontaneous locomotor activity; settings: 30 min
# Caco-2 cell monolayer = assay: Caco-2 permeability assay; settings: 10 μM; ± SEM
# mice [8] = assay: Respiration by whole-body plethysmography; assay type: in vivo, mouse; settings: 0.1 mg/kg
# rats = settings: rat, in vivo, iv
# mice [9] = settings: cited from earlier work
# monkeys = settings: 0.001 mg/kg; cited from earlier work
# [10] = 0.03 mg/kg; cited from earlier work
# [11] = 0.003 mg/kg; cited from earlier work
# [12] = Caco-2 permeability assay; settings: human, Caco-2
# [13] = cited from earlier work
# [14] = Weight change under chronic administration; settings: 10 mg/kg s.c. twice daily, mice
# [15] = cited from earlier work; remark: listed apart in the source
Molecule,MOR %Emax (MOR [2]) [%],EC50 (MOR [2]) [nM],DOR %Emax (DOR),EC50 (DOR) [nM],Selectivity D/M (MOR [3]),KOR %Emax (KOR [4]) [%],EC50 (KOR [4]) [nM],Selectivity D/K (KOR [5]),Selectivity M/K (KOR [5]),further results
"Cl.O=C(/C=C/c1ccoc1)N[C@H]1CC[C@@]2(O)[C@H]3Cc4ccc(O)c5c4[C@@]2(CCN3CC2CC2)[C@H]1O5 [Compound 9, (2E)-N-[6α-17-(Cyclopropylmethyl)-3,14-dihydroxy-4,5α-epoxy-morphinan-6-yl]-3-(3-furanyl)-2-propenamide hydrochloride]",25.9 ± 1.0,8.41 ± 0.98,108 ± 6%,83.6 ± 28.8,16,73.7 ± 2.5,15.3 ± 1.9,10,0.6,"Antinociceptive effect (%MPE) in single-dose screening (mice [1]; 10 mg/kg s.c., mice): no significant increase of %MPE"
"Cl.O=C(/C=C/c1ccoc1)N[C@@H]1CC[C@@]2(O)[C@H]3Cc4ccc(O)c5c4[C@@]2(CCN3CC2CC2)[C@H]1O5 [Compound 10, (2E)-N-[6β-17-(Cyclopropylmethyl)-3,14-dihydroxy-4,5α-epoxy-morphinan-6-yl]-3-(3-furanyl)-2-propenamide hydrochloride]",40.8 ± 2.2,1.36 ± 0.14,103 ± 11%,24.8 ± 4.7,15,95.2 ± 4.9,0.36 ± 0.02,26,1.8,"Antinociception potency ED50 (95% CL) (mice [1]; mice, s.c.): 2.414 (1.720 - 3.388) mg/kg"
"CN(C(=O)/C=C/c1ccoc1)[C@@H]1CC[C@@]2(O)[C@H]3Cc4ccc(O)c5c4[C@@]2(CCN3CC2CC2)[C@H]1O5.Cl [Compound 11, (2E)-N-[6β-17-(Cyclopropylmethyl)-3,14-dihydroxy-4,5α-epoxy-morphinan-6-yl]-3-(3-furanyl)-N-methyl-2-propenamide hydrochloride]",,,,,,,,,,"Antinociceptive effect in morphine-tolerated mice (cross tolerance) (mice [6]): retained a higher antinociceptive effect than morphine; Activity-reducing (sedative) effects on locomotor activity (mice [7]; 0.1 mg/kg or 0.5 mg/kg s.c.): no significant activity-reducing effects; Hyperactivity in locomotor activity test (mice [7]; s.c.): no significant hyperactivity; Duration of antinociception (mice [1]; 0.1 mg/kg s.c., mice): approximately 3 hours; Calculated ED90 of antinociception (mice [1]; mice, s.c.): 0.1 mg/kg; Antinociception potency ED50 (95% CL) (mice [1]; mice, s.c.): 0.037 (0.014 - 0.096) mg/kg; Time of peak antinociceptive effect (mice [1]; s.c., mice): around 0.5 h; B-A Permeability (Caco-2 cell monolayer): 31.8 ± 0.8 x10^−6 cm/s; Effects on respiration (frequency, minute volume, tidal volume) (mice [8]): no significant effects on the respiration; Reinforcing effect in self-administration (number of infusions vs saline) (rats): non-reinforcer"
"CN(C(=O)/C=C/c1ccoc1)[C@@H]1CC[C@@]2(O)[C@H]3Cc4ccc(O)c5c4[C@@]2(CCN3CC2CC2)[C@H]1O5 [Compound 12, (2E)-N-[6β-17-(Cyclopropylmethyl)-3,14-dihydroxy-4,5α-epoxy-morphinan-6-yl]-3-(3-furanyl)-N-methyl-2-propenamide hydrochloride]",,,moderate-to-high efficacy,,,,,,,Antinociceptive effect in morphine-tolerated mice (mice [9]): retained its antinociceptive effect; Respiratory depression (monkeys): did not induced respiratory depression; Action time [10]: less than 2 hours; Emax (MOR [2]; read-out: MOR %Emax): 30.3 ± 3.7%; Action time [11]: 3 to 4 h; Emax (DOR; read-out: DOR %Emax): 65.7 ± 6.4%
"Cl.O=C(/C=C/c1ccoc1)N[C@H]1CC[C@@]2(O)[C@H]3Cc4cccc5c4[C@@]2(CCN3CC2CC2)[C@H]1O5 [Compound 13, (2E)-N-[6α-17-(Cyclopropylmethyl)-4,5α-epoxy-14-hydroxy-morphinan-6-yl]-3-(3-furanyl)-2-propenamide hydrochloride]",22.8 ± 2.1,283 ± 49,102 ± 8%,714 ± 87,0.9,103 ± 2,135 ± 25,1.7,1.9,"Antinociceptive effect (%MPE) in single-dose screening (mice [1]; 10 mg/kg s.c., mice): absence of antinociception"
"Cl.O=C(/C=C/c1ccoc1)N[C@@H]1CC[C@@]2(O)[C@H]3Cc4cccc5c4[C@@]2(CCN3CC2CC2)[C@H]1O5 [Compound 14, (2E)-N-[6β-17-(Cyclopropylmethyl)-4,5α-epoxy-14-hydroxy-morphinan-6-yl]-3-(3-furanyl)-2-propenamide hydrochloride]",27.7 ± 1.1,167 ± 23,107 ± 13%,1500 ± 140,14,97.9 ± 2.4,46 ± 6.8,345,26,"Antinociception potency ED50 (95% CL) (mice [1]; mice, s.c.): 3.827 (1.224 -11.97) mg/kg"
"CN(C(=O)/C=C/c1ccoc1)[C@H]1CC[C@@]2(O)[C@H]3Cc4cccc5c4[C@@]2(CCN3CC2CC2)[C@H]1O5.Cl [Compound 15, (2E)-N-[6a-17-(Cyclopropylmethyl)-4,5a-epoxy-14-hydroxy-morphinan-6-yl]-3-(3-furanyl)-N-methyl-2-propenamide hydrochloride]",55.8 ± 2.9,132 ± 10,108 ± 7%,242 ± 28,12,98.4 ± 2.4,2.52 ± 0.38,249,21,"Antinociception potency ED50 (95% CL) (mice [1]; mice, s.c.): 0.341 (0.196 - 0.604) mg/kg"
"CN(C(=O)/C=C/c1ccoc1)[C@@H]1CC[C@@]2(O)[C@H]3Cc4cccc5c4[C@@]2(CCN3CC2CC2)[C@H]1O5.Cl [Compound 16, (2E)-N-[6β-17-(Cyclopropylmethyl)-4,5α-epoxy-14-hydroxy-morphinan-6-yl]-3-(3-furanyl)-N-methyl-2-propenamide hydrochloride]",17.5 ± 4.4,1800 ± 1100,107 ± 8%,2100 ± 400,8.1,94.6 ± 2.9,59 ± 7.1,343,42,"Antinociception potency ED50 (95% CL) (mice [1]; mice, s.c.): 1.610 (1.057 - 2.452) mg/kg"
CC(CCc1ccccc1)NCC(O)c1ccc(O)c(C(N)=O)c1 (stereo not drawn) [Labetalol],,,,,,,,,,Papp A→B at 10 µM [12]: 18.5 ± 0.3 ×10⁻⁶ cm/s; Papp B→A at 10 µM [12]: 34.2 ± 0.4 ×10⁻⁶ cm/s; %fa: extent of absorption in humans [13]: 90%; %fa: extent of absorption in humans ([13]; listed as labetalol): 90%
"CN1CC[C@]23c4c5ccc(O)c4O[C@H]2[C@@H](O)C=C[C@H]3[C@H]1C5 [Morphine, reference compound]",,,,,,,,,,"Weight change [14]: lost weight significantly after only one day; Duration of antinociception (mice [1]; 10 mg/kg s.c., mice): approximately 3 hours; Time of peak antinociceptive effect (mice [1]; s.c., mice): around 0.5 h"
"Oc1ccc2c3c1O[C@H]1c4[nH]c5ccccc5c4C[C@@]4(O)[C@@H](C2)N(CC2CC2)CC[C@]314 [NTI, reference compound]",,,,,,,,,,Blocking of the antinociception of 0.1 mg/kg NMF by selective antagonist (mice [1]): able to reduce the antinociception
CC(C)NCC(O)COc1cccc2ccccc12 (stereo not drawn) [Propranolol],,,,,,,,,,Papp A→B at 10 µM [12]: 23.8 ± 0.4 ×10⁻⁶ cm/s; Papp B→A at 10 µM [12]: 25.6 ± 0.7 ×10⁻⁶ cm/s
CNC(=C[N+](=O)[O-])NCCSCc1ccc(CN(C)C)o1 [Ranitidine],,,,,,,,,,Papp A→B at 10 µM [12]: 0.5 ± 0.02 ×10⁻⁶ cm/s; %fa: extent of absorption in humans [13]: 50%
"Oc1ccc2c3c1O[C@H]1c4[nH]c5c(c4C[C@@]4(O)[C@@H](C2)N(CC2CC2)CC[C@]314)C[C@@]1(O)[C@H]2Cc3ccc(O)c4c3[C@@]1(CCN2CC1CC1)[C@H]5O4 [nor-BNI, reference compound]",,,,,,,,,,Blocking of the antinociception of 0.1 mg/kg NMF by selective antagonist (mice [1]): able to reduce the antinociception
CC[C@@H]1CN2CCc3c([nH]c4cccc(OC)c34)[C@H]2C[C@@H]1/C(=C\OC)C(=O)OC [speciociliatine],,,,,,,,,,PPB [15]: 90-99%
"COC(=O)/C=C/C(=O)N[C@@H]1CC[C@@]2(O)[C@H]3Cc4ccc(O)c5c4[C@@]2(CCN3CC2CC2)[C@H]1O5 [β-FNA, reference compound]",,,,,,,,,,Blocking of the antinociception of 0.1 mg/kg NMF by selective antagonist (mice [1]): not able to block the antinociception
mitragynine,,,,,,,,,,PPB [15]: 90-99%

# Reference: paper PMC10243363 (ACS chemical neuroscience, 2022)
